These results are taken from patent US20240174634A1, “Aldehyde Dehydrogenase Inhibitors and Their Therapeutic Use” (priority 2020, published 2024).

This assay addresses T1, ALDH1A3 (Homo sapiens, UniProt P47895).
T1 sequence (P47895 1-512): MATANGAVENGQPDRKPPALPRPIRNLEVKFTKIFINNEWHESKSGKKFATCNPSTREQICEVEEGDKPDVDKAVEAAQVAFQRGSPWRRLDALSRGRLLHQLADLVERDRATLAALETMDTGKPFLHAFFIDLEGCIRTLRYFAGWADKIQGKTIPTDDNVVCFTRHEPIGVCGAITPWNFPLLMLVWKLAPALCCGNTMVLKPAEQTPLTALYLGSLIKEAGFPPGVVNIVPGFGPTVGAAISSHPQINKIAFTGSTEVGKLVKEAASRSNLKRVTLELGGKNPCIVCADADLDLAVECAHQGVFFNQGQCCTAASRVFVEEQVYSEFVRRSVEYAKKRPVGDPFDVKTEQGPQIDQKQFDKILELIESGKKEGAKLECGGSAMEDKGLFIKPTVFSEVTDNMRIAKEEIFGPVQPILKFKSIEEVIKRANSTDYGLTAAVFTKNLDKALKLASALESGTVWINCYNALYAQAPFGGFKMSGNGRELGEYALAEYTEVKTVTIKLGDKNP
Kind of assay: ALDH1A3 cellular assay (ALDEFLUOR) in WM266.4 melanoma cells. It is filed as cell-based. The following applies: WM266.4 cells; 60 min incubation; percentage of ALDH-positive cells. The source says:
Materials: WM266.4 cells were procured from ATCC. (WM266-4 is a metastatic human melanoma cell line.) The ALDEFLUOR™ Assay kit (cat. no. 01700) and Aldefluor buffer (cat. no. 01702) were procured from StemCell Technologies. Dulbecco's Modified Eagle Medium (DMEM), FluoroBrite DMEM, Glutamax and Hoechst 33342 were purchased from ThermoFisher. Verapamil was obtained from Fluorochem. FBS was obtained from Sigma. Echo Qualified 384-well low-dead-volume microplate and Echo Qualified 384-well polypropylene microplate were purchased from Labcyte, and the Microclear black sterile polystyrene microplate from Greiner Bio-One.
Method: Intracellular inhibition of ALDH1A3 was assessed using the ALDEFLUOR™ Assay kit. The activated ALDEFLUOR™ reagent, BODIPY-aminoacetaldehyde (BAAA), is a fluorescent non-toxic substrate for ALDH enzymes, which freely diffuses into intact and viable cells. In the presence of ALDH enzyme activity, BAAA is converted into BODIPY-aminoacetate (BAA), which is retained inside the cells. The amount of fluorescent reaction product is proportional to the ALDH activity in the cells and is measured using an imaging cytometer. Active efflux of the reaction product is inhibited by an efflux inhibitor (Verapamil) in the ALDEFLUOR™ Assay Buffer.
A frozen vial of cells was recovered into a T225 flask containing DMEM, high glucose, 10% FBS, 1% glutamax, 1% HEPES. The following day, media was changed and cells were ready for assay from 72 hours after recovery. Cells were transferred into FluoroBrite DMEM (plus 10% FBS, 1% glutamax and 1% HEPES) and diluted to 2.5×10^5 cells/mL. 30 μL of cells were added to each well to give 7500 cells/well and then incubated overnight at 37° C., 5% CO2. After overnight incubation, the media was aspirated and replaced by 20 μL substrate/Hoechst buffer solution. Each plate requires 9 mL of solution comprising, 9 mL ALDEFLUOR assay buffer, 18 μL BAAA substrate (final concentration 500 nM), 4.5 μL Hoechst 33342 (final concentration 5 μg/mL) and 4.5 μL Verapamil (final concentration 50 μM). Compounds were prepared for dosing using the Echo acoustic dispenser by aliquoting into a source plate and dosed directly onto the cell assay plate to give a 10 point dose response per compound ranging from 10 μM to 0.0005 μM final concentration in 3-fold dilution steps. Plates were then incubated for 60 minutes at 37° C., 5% CO2. The buffer was then aspirated and cells washed twice in ice-cold PBS. Plates were kept on ice and 30 μL of cold Aldefluor buffer with 50 μM verapamil dispensed per well. The plates were then imaged using the CellInsight fluorescent microscope. Hoechst fluorescence in the 405 nm channel indicated the nuclear area and this was used to define nuclei and then the surrounding cellular area. Fluorescence in the 488 nm channel of the defined cellular area indicates ALDH1A3 activity. The percentage of cells positive for ALDH activity was plotted versus compound concentration to generate EC50 values using curve fitting parameters defined in Dotmatics software.
For `O=C1CCc2cc(OCCN3CC(O)CC3c3cccc(F)c3)ccc2N1` (mixture of isomers) [ALDHI-2035, 6-[2-[2-(3-fluorophenyl)-4-hydroxy-pyrrolidin-1-yl]ethoxy]-3,4-dihydro-1H-quinolin-2-one], the IC50 was < 0.1 µM. The molecule `CC1CN(CCOc2ccc3c(c2)CCC(=O)N3)C(c2ccccc2)CO1` (mixture of isomers) [ALDHI-2042, 6-[2-(2-methyl-5-phenyl-morpholin-4-yl)ethoxy]-3,4-dihydro-1H-quinolin-2-one] had an IC50 of 0.1 to 1 µM. `O=C1CCc2cc(NC(=O)c3sc(N4CCOCC4)nc3-c3cccc(F)c3)ccc2N1` [ALDHI-1001, 4-(3-fluorophenyl)-2-morpholino-N-(2-oxo-3,4-dihydro-1H-quinolin-6-yl)thiazole-5-carboxamide]: the IC50 was < 0.1 µM. The value for `CN(C)c1nc(-c2cccc(F)c2)c(C(=O)Nc2ccc3c(c2)CCC(=O)N3)s1` [ALDHI-1002, 2-(dimethylamino)-4-(3-fluorophenyl)-N-(2-oxo-3,4-dihydro-1H-quinolin-6-yl)thiazole-5-carboxamide] was < 0.1 µM; that for `O=C1CCc2cc(NC(=O)c3scnc3-c3cccc(F)c3)ccc2N1` [ALDHI-1003, 4-(3-fluorophenyl)-N-(2-oxo-3,4-dihydro-1H-quinolin-6-yl)thiazole-5-carboxamide] was < 0.1 µM. The value for `O=C1CCc2cc(NC(=O)c3sc(N4CC(O)C4)nc3-c3cccc(F)c3)ccc2N1` [ALDHI-1004, 4-(3-fluorophenyl)-2-(3-hydroxyazetidin-1-yl)-N-(2-oxo-3,4-dihydro-1H-quinolin-6-yl)thiazole-5-carboxamide] was < 0.1 µM.

Consider `O=C1CCc2cc(NC(=O)c3sc(N4CCNCC4)nc3-c3cccc(F)c3)ccc2N1` [ALDHI-1005, 4-(3-fluorophenyl)-N-(2-oxo-3,4-dihydro-1H-quinolin-6-yl)-2-piperazin-1-yl-thiazole-5-carboxamide], for which the IC50 is < 0.1 µM. In the case of `Cc1noc(-c2ccccc2C(=O)Nc2ccc3c(c2)CCC(=O)N3)n1` [ALDHI-1008, 2-(3-methyl-1,2,4-oxadiazol-5-yl)-N-(2-oxo-1,2,3,4-tetrahydroquinolin-6-yl)benzamide] it was 0.1 to 1 µM; in that of `O=C1CCc2cc(NC(=O)c3ncsc3-c3ccsc3)ccc2N1` [ALDHI-1011, N-(2-oxo-3,4-dihydro-1H-quinolin-6-yl)-5-(3-thienyl)thiazole-4-carboxamide], 1 to 10 µM; in that of `O=C1CCc2cc(NC(=O)c3ncsc3-c3cccc(F)c3)ccc2N1` [ALDHI-1014, 5-(3-fluorophenyl)-N-(2-oxo-3,4-dihydro-1H-quinolin-6-yl)thiazole-4-carboxamide], 1 to 10 µM.

Regarding `O=C1COc2cc(NC(=O)c3scnc3-c3cccc(F)c3)ccc2N1` [ALDHI-1016, 4-(3-fluorophenyl)-N-(3-oxo-4H-1,4-benzoxazin-7-yl)thiazole-5-carboxamide], the IC50 was < 0.1 µM. The value for `O=C1CCc2cc(NC(=O)c3scnc3-c3ccc(F)cc3)ccc2N1` [ALDHI-1017, 4-(4-fluorophenyl)-N-(2-oxo-1,2,3,4-tetrahydroquinolin-6-yl)thiazole-5-carboxamide] was 0.1 to 1 µM; that for `O=C1CCc2cc(NC(=O)c3cncnc3-c3cccc(F)c3)ccc2N1` [ALDHI-1018, 4-(3-fluorophenyl)-N-(2-oxo-3,4-dihydro-1H-quinolin-6-yl)pyrimidine-5-carboxamide] was 0.1 to 1 µM; that for `O=C1CCc2cc(NC(=O)c3ocnc3-c3cccc(F)c3)ccc2N1` [ALDHI-1019, 4-(3-fluorophenyl)-N-(2-oxo-3,4-dihydro-1H-quinolin-6-yl)oxazole-5-carboxamide] was 1 to 10 µM. For `O=C1CCc2cc(NC(=O)c3scnc3-c3ccccc3F)ccc2N1` [ALDHI-1021, 4-(2-fluorophenyl)-N-(2-oxo-3,4-dihydro-1H-quinolin-6-yl)thiazole-5-carboxamide], the IC50 was < 0.1 µM. The value for `O=C1CCc2cc(NC(=O)c3scnc3-c3cccs3)ccc2N1` [ALDHI-1023, N-(2-oxo-3,4-dihydro-1H-quinolin-6-yl)-4-(2-thienyl)thiazole-5-carboxamide] was < 0.1 µM; that for `O=C1CCc2cc(OCCN3CCCC3c3cccc(F)c3)ccc2N1` (stereo not drawn) [ALDHI-2001, 6-[2-[2-(3-fluorophenyl)pyrrolidin-1-yl]ethoxy]-3,4-dihydro-1H-quinolin-2-one] was < 0.1 µM; that for `O=C1CCc2cc(OCCN3CCCC3c3ccccc3F)ccc2N1` (stereo not drawn) [ALDHI-2002, 6-[2-[2-(2-fluorophenyl)pyrrolidin-1-yl]ethoxy]-3,4-dihydro-1H-quinolin-2-one] was 1 to 10 µM. The value for `O=C1CCc2cc(OCCN3CCCC3c3ccc(F)cc3)ccc2N1` (stereo not drawn) [ALDHI-2003, 6-[2-[2-(4-fluorophenyl)pyrrolidin-1-yl]ethoxy]-3,4-dihydro-1H-quinolin-2-one] was 1 to 10 µM; that for `O=C1CCc2cc(OCCN3CCCC3c3ccncc3)ccc2N1` (stereo not drawn) [ALDHI-2004, 6-[2-[2-(4-pyridyl)pyrrolidin-1-yl]ethoxy]-3,4-dihydro-1H-quinolin-2-one] was 1 to 10 µM; that for `O=C1CCc2cc(OCCN3CCCC3c3cccnc3)ccc2N1` (stereo not drawn) [ALDHI-2005, 6-[2-[2-(3-pyridyl)pyrrolidin-1-yl]ethoxy]-3,4-dihydro-1H-quinolin-2-one] was 0.1 to 1 µM. In the case of `O=C1CCc2cc(OCCN3CCCC3c3ccccn3)ccc2N1` (stereo not drawn) [ALDHI-2006, 6-[2-[2-(2-pyridyl)pyrrolidin-1-yl]ethoxy]-3,4-dihydro-1H-quinolin-2-one] it was 1 to 10 µM; in that of `O=C1CCc2cc(OCCN3CCC[C@@H]3c3cccc(F)c3)ccc2N1` [ALDHI-2007, 6-[2-[(2R)-2-(3-fluorophenyl)pyrrolidin-1-yl]ethoxy]-3,4-dihydro-1H-quinolin-2-one], < 0.1 µM. For the molecule `O=C1CSc2cc(OCCN3CCCC3c3cccc(F)c3)ccc2N1` (stereo not drawn) [ALDHI-2008, 7-[2-[2-(3-fluorophenyl)pyrrolidin-1-yl]ethoxy]-4H-1,4-benzothiazin-3-one], the concentration for half-maximal inhibition (IC50) is < 0.1 µM. In the case of `O=C1COc2cc(OCCN3CCCC3c3cccc(F)c3)ccc2N1` (stereo not drawn) [ALDHI-2009, 7-[2-[2-(3-fluorophenyl)pyrrolidin-1-yl]ethoxy]-4H-1,4-benzoxazin-3-one] it was 0.1 to 1 µM; in that of `Cc1ccc(C2CCCN2CCOc2ccc3c(c2)CCC(=O)N3)cc1` (stereo not drawn) [ALDHI-2010, 6-[2-[2-(p-tolyl)pyrrolidin-1-yl]ethoxy]-3,4-dihydro-1H-quinolin-2-one], 0.1 to 1 µM. In the case of `Cc1cccc(C2CCCN2CCOc2ccc3c(c2)CCC(=O)N3)c1` (stereo not drawn) [ALDHI-2011, 6-[2-[2-(m-tolyl)pyrrolidin-1-yl]ethoxy]-3,4-dihydro-1H-quinolin-2-one] it was 1 to 10 µM; in that of `Cc1ccccc1C1CCCN1CCOc1ccc2c(c1)CCC(=O)N2` (stereo not drawn) [ALDHI-2012, 6-[2-[2-(o-tolyl)pyrrolidin-1-yl]ethoxy]-3,4-dihydro-1H-quinolin-2-one], 1 to 10 µM; in that of `O=C1CCc2cc(OCCN3CCCC3c3cccs3)ccc2N1` (stereo not drawn) [ALDHI-2013, 6-[2-[2-(2-thienyl)pyrrolidin-1-yl]ethoxy]-3,4-dihydro-1H-quinolin-2-one], 0.1 to 1 µM. As to `O=C1CCc2cc(OCCN3CCCC3c3ccsc3)ccc2N1` (stereo not drawn) [ALDHI-2014, 6-[2-[2-(3-thienyl)pyrrolidin-1-yl]ethoxy]-3,4-dihydro-1H-quinolin-2-one], the IC50 lay within 0.1 to 1 µM.
